Our source for the Ki values is BindingDB's records for doi:10.1021/jm990587w (Alcon Laboratories, 2000).

pKi: −log10 of the molar value.

For the experiment, the target named is Prostaglandin F2-alpha receptor (Bos taurus). Put plainly: Inhibitory Binding constant (n=2) to Prostanoid FP receptor expressed in bovine corpus luteum.

Broadly, the pKi is −log10 of the Ki, conventionally taken in molar units. A lower pKi goes with a high Ki. Molecule `O=C(O)CCC/C=C\C[C@@H]1[C@@H](/C=C/[C@@H](O)COc2cccc(Cl)c2)[C@H](O)CC[C@@H]1O` [7-{2-[4-(3-Chloro-phenoxy)-3-hydroxy-but-1-enyl]-3,6-dihydroxy-cyclohexyl}-hept-5-enoic acid] showed a pKi of 5.72.

`O=C(O)CCC/C=C\C[C@@H]1[C@@H](/C=C/[C@H](O)COc2cccc(Cl)c2)[C@H](O)CC[C@@H]1O` [7-{2-[4-(3-Chloro-phenoxy)-3-hydroxy-but-1-enyl]-3,6-dihydroxy-cyclohexyl}-hept-5-enoic acid] showed a pKi of 4.25.
